“And” between values parts separate entries of the source, which are not always exact repeats. Identical values can stand only once. Like-named read-outs stand apart in the source and are kept apart here.
Key:
[1] = test system: paclitaxel-induced neuropathic pain; test: Paclitaxel-induced neuropathic pain (mechano-allodynia, mechano-hyperalgesia); format: in vivo, rats; conditions: 0.2 μmol/kg/d (not shown)
[2] = test system: CCI of the sciatic nerve (mechano-allodynia); test: CCI model of neuropathic pain, mechano-allodynia (von Frey PWT); format: in vivo, mice; conditions: for effect on PWT in contralateral paws / ED50 at peak reversal of mechano-allodynia when combined with IB-MECA: D7 after CCI; for effect on PWT in contralateral paws: drug alone; for reversal of mechano-allodynia in ipsilateral paws: single dose D7, IB-MECA 0.2-2, CI-IB-MECA 0.6, MRS1898 0.5 μmol/kg i.p., morphine 0.11-35 s.c., gabapentin 18-584 i.p., amitriptyline 3-191 μmol/kg oral; for effect of antagonist pretreatment on anti-allodynic effect of CI-IB-MECA or MRS1898: 15 min before CI-IB-MECA 0.6 or MRS1898 0.5 μmol/kg, DPCPX and SCH-442416 with MRS1898 only; for effect of antagonist pretreatment on anti-allodynic effect of IB-MECA: 15 min before IB-MECA 0.5 μmol/kg, MRS1523 5, DPCPX 2, SCH-442416 0.2 μmol/kg; for effect of antagonist given alone on ipsilateral or contralateral PWT / increase of potency by IB-MECA: D7; for effect of antagonist given alone on ipsilateral or contralateral PWT: MRS1523 5, DPCPX 2, SCH-442416 0.2, naloxone 25 μmol/kg; for efficacy of IB-MECA compared with this drug: D7, time of peak reversal (FIG. 7); for ED50: Mus musculus, read-out: ED50, reversal of mechano-allodynia; for time of maximal reversal of mechano-allodynia: after single administration on D7; for increase of potency by IB-MECA: co-administered IB-MECA 0.2 μmol/kg; for ED50 at peak reversal of mechano-allodynia when combined with IB-MECA: mice, co-administered with IB-MECA 0.2 μmol/kg; for fold less potent than IB-MECA in reversing mechano-allodynia: ratio of ED50 values, D7, time of peak reversal
Experimental: CCI model of neuropathic pain. CCI to the sciatic nerve of the left hind leg in mice was performed under general anaesthesia using the well-characterized Bennett model. Briefly, mice (weighing 25-30 g at the time of surgery) were anesthetized with 3% isoflurane/100% O2 inhalation and maintained on 2% isoflurane/100% O2 for the duration of surgery. The left thigh was shaved, scrubbed with Nolvasan® and a small incision (1-1.5 cm in length) was made in the middle of the lateral aspect of the left thigh to expose the sciatic nerve. The nerve was loosely ligated around the entire diameter of the nerve at three distinct sites (spaced 1 mm apart) using silk sutures (6.0). The surgical site was closed with a single muscle suture and a skin clip. Pilot studies established that under our experimental conditions peak mechano-allodynia develops by day 5-day 7 (D5-D7) following CCI. Test substances or their vehicles were given subcutaneously (s.c.), intraperitoneally (i.p.) or orally by gavage (0.1 ml) at peak mechano-allodynia (D7).
Behavioral testing. […] The plantar aspect of hindpaws were probed three times with calibrated von Frey filaments (Stoelting, mice: 0.07-2.00 grams; rats: 0.407-26 grams) according to the “up-and-down” method. […] Briefly, each rat was placed in a Plexiglas chamber (28×40×35-cm, wire mesh floor) and after its acclimation, a servo-controlled mechanical stimulus was applied to the plantar surface that exerted a progressively increasing punctate pressure up to 50 grams within 10 seconds. Mechanical threshold was assessed three times at each time point to yield a mean value, reported as PWT (grams). […] Mechano-hyperalgesia was assessed in rats by the Randall and Sellitto paw pressure test using an analgesiometer (Ugo Basile). The nociceptive threshold was defined as the force (grams) at which the rat withdrew its paw (cut off set at 250 grams).
Determining ED50 values. Dose response data were curve-fitted using the least sum of square method by a normalized 4-parameter, variable slope non-linear analysis of the % Reversal of Mechano-allodynia in CCI and % Prevention of Mechano-allodynia or Mechano-hyperalgesia in CIPN using GraphPad Prism (Release 5.03, GraphPad Software, Inc.) from which the ED50 was determined and reported with the 95% confidence interval (95% CI). In the CCI model, the % Reversal of Mechano-allodynia=(PWT1h−PWTD7)/(PWTD0−PWTD7)×100, where PWTD0=Paw Withdrawal Threshold (g) at D0, PWT1h=Paw Withdrawal Threshold (g) at 1 hour after the administration of IB-MECA, gabapentin, amitriptyline, or combinations of IB-MECA with gabapentin or amitriptyline, and PWTD7=Paw Withdrawal Threshold (grams) at D7 prior to drug administration.
Statistical Analysis. Data are expressed as mean±SD for n animals. Behavioral data were analyzed by two-way repeated measures ANOVA with Bonferroni comparisons (full time course studies) or one-way ANOVA Dunnett's comparisons (1 hour behavioral data). The dose response curves were compared to a globally fitted curve using the extra sum-of-squares F-test comparisons to determine whether the data represented distinct curves between treatments. Significant differences were defined at a P<0.05. All statistical analysis was performed using GraphPad Prism (v5.03, GraphPad Software, Inc.).

[3] = cited from earlier work

SMILES: CNC(=O)[C@H]1O[C@@H](n2cnc3c(NCc4cccc(I)c4)nc(Cl)nc32)[C@H](O)[C@@H]1O [CI-IB-MECA, 2-chloro-N^6-(3-iodobenzyl)-adenosine-5′-N-methyluronamide]
- effect on paclitaxel-induced neuropathic pain [1]: completely blocked
- effect on PWT in contralateral paws [2]: had no effect
- reversal of mechano-allodynia in ipsilateral paws [2]: reversed mechano-allodynia

SMILES: CCCn1c(=O)c2[nH]c(C3CCCC3)nc2n(CCC)c1=O [DPCPX, 8-cyclopentyl-1,3-dipropylxanthine]
- effect of antagonist pretreatment on anti-allodynic effect of CI-IB-MECA or MRS1898 [2]: did not prevent
- effect of antagonist pretreatment on anti-allodynic effect of IB-MECA [2]: not affected
- effect of antagonist given alone on ipsilateral or contralateral PWT [2]: lacked effect

SMILES: COc1ccc(CCCn2ncc3c2nc(N)n2nc(-c4ccco4)nc32)cc1 [SCH-442416, 2-(2-furanyl)-7-[3-(4-methoxyphenyl)propyl]-7Hpyrazolo[4,3-e][1,2,4]triazolo[1,5-C]pyrimidin-5-amine]
- effect of antagonist pretreatment on anti-allodynic effect of CI-IB-MECA or MRS1898 [2]: did not prevent
- effect of antagonist pretreatment on anti-allodynic effect of IB-MECA [2]: not affected
- effect of antagonist given alone on ipsilateral or contralateral PWT [2]: lacked effect

SMILES: CN(C)CCC=C1c2ccccc2CCc2ccccc21 [amitriptyline]
- efficacy of IB-MECA compared with this drug [2]: equiefficacious
- effect on PWT in contralateral paws [2]: had no effect
- ED50 [2]: 31 µmol/kg
- time of maximal reversal of mechano-allodynia [2]: 1 h
- increase of potency by IB-MECA [2]: 2 fold
- ED50 at peak reversal of mechano-allodynia when combined with IB-MECA [2]: 13 µmol/kg
- fold less potent than IB-MECA in reversing mechano-allodynia [2]: > 75 fold and 75 fold
- reversal of mechano-allodynia in ipsilateral paws [2]: dose-dependent reversal of mechano-allodynia

SMILES: N.N.O=C([O-])C1(C(=O)[O-])CCC1.[Pt+2] [carboplatin]
- incidence of CIPN ([3]; subjects receiving the drug): 40%

SMILES: N.N.[Cl][Pt][Cl] [cisplatin]
- incidence of CIPN ([3]; in vivo): 70-90%

SMILES: CC(=O)O[C@@]12CO[C@@H]1C[C@H](O)[C@@]1(C)C(=O)[C@H](O)C3=C(C)[C@@H](OC(=O)[C@H](O)[C@@H](NC(=O)OC(C)(C)C)c4ccccc4)C[C@@](O)([C@@H](OC(=O)c4ccccc4)[C@H]21)C3(C)C [docetaxel]
- incidence of CIPN ([3]; subjects receiving the drug): 60%

SMILES: NCC1(CC(=O)O)CCCCC1 [gabapentin, 2-[1-(aminomethyl)cyclohexyl]acetic acid]
- efficacy of IB-MECA compared with this drug [2]: equiefficacious
- effect on PWT in contralateral paws [2]: had no effect
- ED50 [2]: 140 µmol/kg
- time of maximal reversal of mechano-allodynia [2]: 1 h
- increase of potency by IB-MECA [2]: > 5 fold
- ED50 at peak reversal of mechano-allodynia when combined with IB-MECA [2]: 27 µmol/kg
- fold less potent than IB-MECA in reversing mechano-allodynia [2]: > 350 fold
- reversal of mechano-allodynia in ipsilateral paws [2]: dose-dependent reversal of mechano-allodynia

SMILES: C=CCN1CC[C@]23c4c5ccc(O)c4O[C@H]2C(=O)CC[C@@]3(O)[C@H]1C5 [naloxone]
- effect of antagonist given alone on ipsilateral or contralateral PWT [2]: did not affect
- effect of naloxone on reversal of mechano-allodynia by A3AR agonists ([2]; naloxone 25 μmol/kg i.p. 15 minutes before IB-MECA or MRS1898 0.5 μmol/kg): did not interfere
